Test results from publication PMC9993039, “Synthesis and radiolabelling of PSMA-targeted derivatives containing GYK/MVK cleavable linkers” (Royal Society Open Science, 2023).

Columns and labels:
[1] = assay type: in vitro ADME, mouse
Procedure: Stability was determined for both the In-111 and Lu-177 labelled compounds by mixing 20 µl of radiolabelled sample (approx. 5 MBq) with 80 µl phosphate buffered saline (PBS) (0.01 M, pH 7.4), or mixing 70 µl of radiolabelled sample (approx. 20 MBq) with 330 µl of mouse serum, and heating at 37°C for up to 24 h. After incubation, 50 µl of the mouse serum solution is added to a separate vial containing acetonitrile (50 µl) and the sample is centrifuged for 20 min. The supernatant and precipitate are separated, and the activity is measured to determine the binding to serum proteins. The supernatant is then analysed by radio-HPLC. The PBS solution is loaded directly onto the radio-HPLC.

[2] = in vivo; cited from earlier work
Excerpt: In this study, we synthesized PSMA-targeted radiopharmaceuticals that combined an albumin binder and a cleavable linker to optimize their therapeutic efficacy. We selected the albumin-binder containing PSMA-617 derivative HTK01169 (figure 1), reported by Kuo et al., as a reference. [^177Lu]Lu-HTK01169 delivers an eightfold higher dose to the tumour than [^177Lu]Lu-PSMA-617, but also a 17-fold higher dose to the kidneys. The amino acid sequences Gly-Tyr-Lys (GYK) and Met-Val-Lys (MVK) were selected as the cleavable linkers. Effective cleavage of the MVK sequence in ^67/68Ga-labell ... || The purpose of this study is to report the synthesis and radiolabelling of new PSMA derivatives containing: (i) a PSMA-targeting vector, (ii) an albumin binder, namely 4-(p-iodophenyl)butyric acid, (iii) an amino acid sequence which could be specifically recognized and cleaved by renal brush border (RBB) enzymes, and (iv) a DOTA chelator which can be labelled with In-111 for imaging or Lu-177 for therapy. Previous studies reported that presence of an albumin-binding moiety increases blood residence time of the radiopharmaceutical agent, and ultimately leads to a higher accumulation of the PSMA ...

[3] = tested on: renal brush border enzymes; details: labelled with gallium-68; cited from earlier work
Excerpt: We hypothesized that this radiolabelled impurity might come from the radiation-induced oxidation of the methionine residue of the cleavable linker. Bendre et al. recently synthesized DOTA-AmBz-M(O)VK(HTK01166)-OH, the oxidized analogue of the PSMA-targeted derivative DOTA-AmBz-MVK(HTK01166)-OH, and performed labelling with gallium-68. They observed that the oxidized product was not cleaved by the renal brush border enzymes. It confirms that oxidation of the methionine is undesirable, as it leads to loss of enzyme recognition and consequently less cleavage of the conjugate. This radiolys ...

[4] = tested on: renal brush border (RBB) enzymes; details: Cy5 labelled model peptide; cited from earlier work
Excerpt: High kidney uptake of radiopharmaceuticals can usually be explained by the long residence time of radiometabolites generated after lysosomal proteolysis. This process is followed by glomerular filtration and reabsorption of the radiometabolites in renal cells. By inserting a linker which is specifically cleaved by enzymes on the brush border membrane located in the lumen of the proximal renal tubule, the radiometal-chelator moiety can be rapidly excreted via the bladder while the peptide remains in the kidneys. The MVK sequence was initially conjugated to antibody fragments by Uehara et ...

[5] = tested on: metastatic castration-resistant prostate cancer; details: cited from earlier work
Excerpt: The prostate-specific membrane antigen (PSMA) is overexpressed in prostate cancer cells, and its expression increases with disease progression. PSMA is therefore an attractive target for TRT of prostate cancer. Currently, several compounds targeting this protein are being investigated for imaging and treatment of prostate cancer, with PSMA-617 advancing as a lead candidate (figure 1).

[6] = in vivo; cited from earlier work; remark: listed apart in the source
Excerpt: The purpose of this study is to report the synthesis and radiolabelling of new PSMA derivatives containing: (i) a PSMA-targeting vector, (ii) an albumin binder, namely 4-(p-iodophenyl)butyric acid, (iii) an amino acid sequence which could be specifically recognized and cleaved by renal brush border (RBB) enzymes, and (iv) a DOTA chelator which can be labelled with In-111 for imaging or Lu-177 for therapy. Previous studies reported that presence of an albumin-binding moiety increases blood residence time of the radiopharmaceutical agent, and ultimately leads to a higher accumulation of the PSMA ...

[7] = plus standard of care, versus standard of care, ref NCT03511664

For `N[C@@H](CCCCNC(=O)CN1CCN(CC(=O)O)CCN(CC(=O)O)CCN(CC(=O)O)CC1)C(=O)N[C@@H](Cc1ccc(O)cc1)C(=O)NCC(=O)NCCCC[C@H](NC(=O)[C@H](CCC(=O)O)NC(=O)CCCc1ccc(I)cc1)C(=O)NC[C@H]1CC[C@H](C(=O)N[C@@H](Cc2ccc3ccccc3c2)C(=O)NCCCC[C@H](NC(=O)N[C@@H](CCC(=O)O)C(=O)O)C(=O)O)CC1` [[^111In]-7] [metal not drawn], the “peak at 2.9 min (radiolabelled side-product) in mouse serum” value [1] was 62%.

In the case of `O=C(O)CC[C@H](NC(=O)N[C@@H](CCCCNC(=O)[C@H](Cc1ccc2ccccc2c1)NC(=O)[C@H]1CC[C@H](CNC(=O)[C@H](CCCCNC(=O)CN2CCN(CC(=O)O)CCN(CC(=O)O)CCN(CC(=O)O)CC2)NC(=O)[C@H](CCC(=O)O)NC(=O)CCCc2ccc(I)cc2)CC1)C(=O)O)C(=O)O` [[^177Lu]Lu-HTK01169, metal not drawn], the “radiation dose to the kidneys relative to [177Lu]Lu-PSMA-617” value [2] is given as 17 fold and the “radiation dose to the tumour relative to [177Lu]Lu-PSMA-617” value [2] is given as “eightfold”.

In the case of DOTA-AmBz-M(O)VK(HTK01166)-OH, the “cleavage by renal brush border enzymes” value [3] is listed as “not cleaved”.

In the case of “H-GGGFK(Cy5)-NH2 [Cy5 labelled model peptide with GFK linker]”, the “cleavage on incubation with RBB enzymes” value [4] is listed as 82%.

In the case of “H-GGGYK(Cy5)-NH2 [Cy5 labelled model peptide with GYK linker]”, the “cleavage on incubation with RBB enzymes” value [4] is given as “quantitative cleavage”.

For [^177Lu]Lu-PSMA-617, the “patients who do not respond significantly to the treatment” value [5] is listed as “approximately 30%”, the “incidence of adverse effects (grade 3 or 4)” value ([5]; human, in vivo) is listed as 52.7% and the response rates ([5]; patients) is listed as “over 50%”. The “imaging-based progression free survival (median)” value [5, 7] was 8.7 months, the “overall survival (median)” value [5, 7] was 15.3 months and the “uptake in the kidneys at 1 h” value [6] was “approximately 10 % IA g^−1”. For the same compound, the “uptake in the kidneys at 24 h” value [6] was “less than 1 % IA g^−1”.
